Experimental data taken from patent US20220380319A1 (Bial - R&D Investments, S.A., priority 2019, published 2022).
In brackets after ≈: the same amount, converted by molar mass.

Assays:
acid ceramidase = biological target: T1, acid ceramidase (Homo sapiens, UniProt Q13510); test: Acid ceramidase inhibition, biochemical fluorescent assay with cell lysates overexpressing acid ceramidase, substrate Rbm14-12; details: substrate Rbm14-12 6.3 μM
T1 construct: Cell lysates overexpressing acid ceramidase were used as the enzyme source; expressed in transfected cells
T1 sequence (Q13510 22-395): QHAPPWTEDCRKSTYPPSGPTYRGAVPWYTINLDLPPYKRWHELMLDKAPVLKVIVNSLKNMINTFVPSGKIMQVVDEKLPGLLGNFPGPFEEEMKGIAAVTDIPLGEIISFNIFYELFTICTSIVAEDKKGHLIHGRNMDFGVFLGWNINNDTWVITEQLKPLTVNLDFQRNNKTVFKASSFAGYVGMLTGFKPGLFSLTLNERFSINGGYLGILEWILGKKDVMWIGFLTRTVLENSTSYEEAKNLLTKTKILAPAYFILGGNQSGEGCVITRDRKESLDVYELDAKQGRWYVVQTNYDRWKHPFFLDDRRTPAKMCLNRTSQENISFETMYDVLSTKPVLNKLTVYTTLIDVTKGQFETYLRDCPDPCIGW
Outline: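 Lysate of cells overexpressing acid ceramidase (10 μg protein) preincubated with compound dose series 1 hr at RT in 25 mM NaAC, 100 mM NaCl, pH 4.5, then reacted 1 hr with 6.3 μM Rbm14-12. Stopped with NaIO4/glycine buffer pH 10.6, fluorescence ex360/em446; IC50 by four-parameter fit.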

physchem = details: water
[1] = Compound solubility in water
[2] = pH 4.5, 1 hr preincubation at RT

| Compound | IC50 (acid ceramidase; [2]) [µM] | solubility [1] [mg/mL] | IC50 (acid ceramidase; pH 4.5) [µM] | solubility (physchem) [mg/mL] |
| --- | --- | --- | --- | --- |
| CC(C)CCNC(=O)n1cnc2c(N3CC3C(F)(F)F)cccc21 (centres unmarked) [Example 164, N-iso-Pentyl-4-(2-(trifluoromethyl)-aziridin-1-yl)-1H-benzo[d]imidazole-1-carboxamide] | – | – | < 0.2 | 0.002 (≈ 5.88 µM) |
| O=C(NCCCc1ccccc1)n1cnc2c(N3CC3C(F)(F)F)cccc21 (centres unmarked) [Example 242, N-(3-phenylpropyl)-4-(2-(trifluoromethyl)aziridin-1-yl)-1H-benzo[d]imidazole-1-carboxamide] | – | – | < 0.2 | 0.001 (≈ 2.57 µM) |
| O=C(NCCCc1ccccc1)n1cnc2c(N3CC3F)cccc21 (centres unmarked) [Example 274, 4-(2-Fluoroaziridin-1-yl)-N-(3-phenylpropyl)-1H-benzo[d]imidazole-1-carboxamide] | – | – | < 0.2 | 0.017 (≈ 50.2 µM) |
| CC(C)C#CCNC(=O)n1cnc2c(N3CC3C(F)(F)F)cccc21 (centres unmarked) [Example 308, N-(4-Methylpent-2-yn-1-yl)-4-(2-(trifluoromethyl)-aziridin-1-yl)-1H-benzo[d]imidazole-1-carboxamide] | – | – | < 0.2 | 0.001 (≈ 2.85 µM) |
| CN1CCN(CCOc2nc3ccccc3n2C(=O)NCCC#Cc2ccccc2)CC1 [Example 363, 2-(2-(4-Methylpiperazin-1-yl)ethoxy)-N-(4-phenylbut-3-yn-1-yl)-1H-benzo[d]imidazole-1-carboxamide] | < 0.2 | 0.028 (≈ 64.9 µM) | – | – |
| CN(C)C1CN(c2cccc3c2ncn3C(=O)NCCC#Cc2ccccc2)C1 [Example 364, 4-(3-(Dimethylamino)azetidin-1-yl)-N-(4-phenylbut-3-ynyl)-1H-benzo[d]imidazole-1-carboxamide] | < 0.2 | 0.017 (≈ 43.9 µM) | – | – |
| CN1CCN(c2cccc3c2ncn3C(=O)NCc2ccc3c(c2)OCCO3)CC1 [Example 365, N-((2,3-Dihydrobenzo[b][1,4]dioxin-6-yl)methyl)-4-(4-methylpiperazin-1-yl)-1H-benzo[d]imidazole-1-carboxamide] | < 0.2 | 0.011 (≈ 27 µM) | – | – |

Second part, led by results:

| IC50 (acid ceramidase; [2]) [µM] | solubility [1] [mg/mL] | Compound | IC50 (acid ceramidase; pH 4.5) [µM] | solubility (physchem) [mg/mL] |
| --- | --- | --- | --- | --- |
| < 0.2 | 0.023 (≈ 52 µM) | CN1CCN(C2CN(c3cccc4c3ncn4C(=O)NCCC#Cc3ccccc3)C2)CC1 [Example 362, 4-(3-(4-Methylpiperazin-1-yl)azetidin-1-yl)-N-(4-phenylbut-3-ynyl)-1H-benzo[d]imidazole-1-carboxamide] | – | – |
| < 0.2 | 0.021 (≈ 49.1 µM) | CN1CCC2(CC1)CN(c1cccc3c1ncn3C(=O)NCCC#Cc1ccccc1)C2 [Example 366, 4-(7-Methyl-2,7-diazaspiro[3.5]nonan-2-yl)-N-(4-phenylbut-3-yn-1-yl)-1H-benzo[d]imidazole-1-carboxamide] | – | – |
| < 0.2 | 0.027 (≈ 63.2 µM) | CN1CC2(CCN(c3cccc4c3ncn4C(=O)NCCC#Cc3ccccc3)CC2)C1 [Example 367, 4-(2-Methyl-2,7-diazaspiro[3.5]nonan-7-yl)-N-(4-phenylbut-3-yn-1-yl)-1H-benzo[d]imidazole-1-carboxamide] | – | – |
